Experimental data as given in US20130331326A1, “METHOD OF INDUCING HEMATOPOIETIC RECONSTRUCTION” (DUKE UNIVERSITY, priority 2011, published 2013).
Entries after “also recorded” stand apart in the source; their conditions may differ.

What was measured:
BM KSL cells [1] = assay: BrdU incorporation in BM KSL cells in vivo after 700 cGy TBI; set-up: species or system mouse; details: day +7 following 700 cGy TBI, EGF daily x 7 days, vs saline
Description: Cell proliferation was measured in C57B16 mice exposed to 700 cGy TBI and administered 5-bromo-2-deoxyridine (BrdU, BD) in drinking water from the day of irradiation until day +7. BM cells were labeled with anti-cKit PE, anti-scal PE-Cy7, anti-lineage APC, and anti-BrdU FITC. Incorporation of BrdU was analyzed by flow cytometry according to the manufacturer's staining protocol (BD).

CD45+MECA- BM cells = assay: Annexin+ BM hematopoietic cells in mice after 700 cGy TBI; type: in vivo, mouse; details: systemic EGF x 7 days, day +7, vs saline
Description: FIGS. 7A-7G. […] (FIG. 7B) Mean percentage of Annexin^+ Tie2Cre;Bak1^−/−;Bax^Fl/−. […] Non-irradiated BM KSL cells reside predominantly in the G0 (white). G1 light gray, G2/S/M=dark gray. *P=0.002 vs TSF for G0 and ̂P=0.002 vs TSF for G2/S/M, respectively (means±SEM, n=3-5/group). […] The majority of non-irradiated cells were in G0 (white). […] The Mann-Whitney test was utilized for all comparisons unless otherwise noted.
(§1) Cell apoptosis and necrosis were analyzed by flow cytometry according to manufacturer's protocols with Annexin V-FITC and 7-AAD staining (BD, San Jose, Calif.). […] Cells were fixed and permeabilized with Fix Buffer I and Perm Buffer III (BD), and then stained with mouse anti-phospho-AKT-S473 PE (BD) or isotype control. Cell cycle analysis was performed by flow cytometric analysis modified from previous reports (Jordan et al, Exp. Hematol. 24:1347-1355 (1996), Chute et al, Hum. Gene Ther. 11:2515-2528 (2000), Sungartz et al, Blood 119:1308-1309 (2012)). Briefly, cells were fixed and permeabilized with 0.25% Saponin (Calbiochem, La Jolla, Calif.), 2.5% paraformaldehyde, 2% FBS in 1×PBS, and then labeled with Ki67-FITC and 7-AAD (BD). BM lin^− cells from VavCre;EGFR^+/+ or VavCre;EGER^fl/fl were cultured with TSF or TSF+10 μM erlotinib, or TSF following 300 cGy for 72 hours, and then collected for total cell counts and CFCs analysis.

MAPK = assay: Phosphorylation of MAPK in irradiated BM KSL cells; type: cell-based, mouse; details: EGF treatment of irradiated BM KSL cells in culture; data not shown
Source text: EGFR signaling can activate multiple signaling cascades, including the MAPK and PI3k/Akt signaling pathways (Sordella et al, Science 305:1163-1167 (2004), Yang et al, Nature 480:118-122 (2011), Hynes and Lane, Nat. Rev. Cancer 5:341-354 (2005), Wheeler et al, Nat. Rev. Clin. Oncol. 7:493-507 (2010)). […] A further examination was made of whether inhibition of Akt signaling could negate EGF-mediated induction of BM stem/progenitor cell cycling following irradiation.

BM KSL cells [2] = assay: Annexin V apoptosis assay of irradiated BM KSL cells in culture; type: cell-based, mouse; details: 72 hours, vs cytokines alone
Description: as §1

## EGF: epidermal growth factor; recombinant EGF (R&D Systems)
BM KSL cells [1]
  BrdU incorporation in BM KSL cells: significantly increased; also recorded: marked increase
CD45+MECA- BM cells
  decreased Annexin+ BM hematopoietic cells: 4 fold
MAPK
  phosphorylation of MAPK: did not alter the phosphorylation of MAPK
BM KSL cells [2]; C57B16 BM KSL, 300 cGy, cytokines plus 20 ng/ml EGF
  decreased Annexin+ KSL cells: 2 fold
BM KSL cells [2]; irradiated BM KSL cells from Tie2Cre;Bak1-/-;BaxFl/- mice, EGF
  percentage of Annexin+ cells: further decreased
